# “Also recorded” adds a separate entry of the source. Where two headings read alike, the source gives them in different places.
# Experiments:
# Gut Microbiota = details: cited from earlier work
# [1] = 12-hour MPA pharmacokinetic profile in kidney transplant patients taking MMF; format: in vivo, human; details: five kidney transplant participants on MMF
# Protocol: The following example used a stool sample of a kidney transplant patient who was on a steady state dose of 1 gram of mycophenolate mofetil (MMF) twice a day (FIG. 1). This patient underwent intensive pharmacokinetic sampling over 12 hours to assess enterohepatic recirculation (EHR) carefully and accurately. Once participants reach a steady state dose between days 15-45 post-transplant, fourteen blood samples were obtained at the time the morning MMF does was administered and at 30 minutes, one hour, two hours, three hours, four hours, five hours, six hours, seven hours, eight hours, nine hours, ten hours, 11 hours, and 12 hours following the morning MMF dose. The sampling strategy assured capture of the secondary peak and EHR characteristics.
# Five kidney transplant recipients taking MMF and tacrolimus as maintenance immunosuppression had their six-hour MPA levels assessed in the in vitro assay exposing microbiome to MPAG (FIG. 5). These patients also underwent an extensive 12-hour MPA pharmacokinetic (PK) profile (FIG. 6), and the stool samples were collected at the time of the PK profile. The percent EHR in these kidney transplant recipients was defined as [MPA AUC6-12 hour]/[AUC0-12 hour]×100 as a measure of their in vivo EHR. The correlation coefficient between the six-hour MPA level from the in vitro model with percentage EHR was 0.82 (95% CI—0.21 to 0.98, P=0.08).
# stool microbiota [2] = assay: In vitro anaerobic culture of patient stool microbiome with MPA or MPAG, HPLC-MS/MS of supernatant; format: in vitro ADME, human
# Protocol: A human microbiome sample from stool was collected from a patient between days 15-45 post-transplant, during their 12-hour pharmacokinetic visit. Prior to the initiation of the culture of microbiome stool sample, in the MPA arm of the experiment, a 1 mg/mL stock solution of MPA was diluted to […] in thirteen anaerobic culture tubes by adding 0.7 mL of the stock MPA solution to 6.3 mL of YCFA (Yeast extract-Casein hydrolysate-fatty acids) medium broth. Likewise, for the MPAG arm of the experiment, a […] stock solution of MPAG was diluted to […] in thirteen anaerobic culture tubes by adding 0.7 mL of the stock MPAG solution to 6.3 mL of YCFA (Yeast extract-Casein hydrolysate-fatty acids) medium broth.
# Stool aliquots of ˜0.5 g were incubated in separate YCFA tubes containing MPA or MPAG for six hours, 24 hours, or 48 hours in separate tubes, at 37° C. under anaerobic conditions (FIG. 2). All aliquots were collected at each timepoint in triplicate. Aliquots were also collected from MPA and MPAG tubes without any stool samples at zero, six hours, 24 hours, and 48 hours to serve as controls for this experiment.
# After incubation, samples were […] at 16,000×g for 10 minutes, and the supernatant was collected and stored at −80° C. prior to high performance liquid chromatography-tandem mass spectrometry (HPLC-MS/MS) analysis. The supernatant was assessed for the presence and concentration of total MPA and MPAG using a validated mass spectrometry assay. Total MPA and MPAG concentration were determined based on certified analytical reference standards of […] of MPA and MPAG. These analytical reference standards were used as internal standards during the mass spectrometry assay.
# stool microbiota [3] = assay: as above; format: in vitro ADME, human; details: stool frozen at −80° C. for mean 312 days, thawed at 4° C. overnight, assay at 37° C.; six and 24 hours
# [4] = effect of gut microbiome on the compound
Compound,Gut Microbiota Modification (Gut Microbiota),Effect of microbial modification (Gut Microbiota; [4]),also measured
NC(=O)c1cc(N2CC2)c([N+](=O)[O-])cc1[N+](=O)[O-] [CB1954],Improved efficacy,Activation [7],–
Nc1nc(Cl)nc2c1ncn2[C@H]1C[C@H](O)[C@@H](CO)O1 [Cladribine],Inhibited efficacy,Inactivation[7],–
O=C(O)Cc1ccccc1Nc1c(Cl)cccc1Cl [Diclofenac],–,"Toxicity [2, 3]",–
Nc1nc(F)nc2c1ncn2[C@@H]1O[C@H](COP(=O)(O)O)[C@@H](O)[C@@H]1O [Fludarabine de phosphate],Improved efficacy,Activation [7],–
Nc1ccn([C@@H]2O[C@H](CO)[C@@H](O)C2(F)F)c(=O)n1 [Gemcitabine],Inhibited efficacy,Inactivation[7],–
CCc1c2c(nc3ccc(OC(=O)N4CCC(N5CCCCC5)CC4)cc13)-c1cc3c(c(=O)n1C2)COC(=O)[C@]3(O)CC [Irinotecan],–,"Toxicity [1, 2]",–
"COc1c(C)c2c(c(O)c1C/C=C(\C)CCC(=O)O)C(=O)OC2 [MPA, mycophenolic acid]",–,–,"% EHR (MPA AUC6-12 hour/AUC0-12 hour×100), mean [1]: 46%; % EHR (MPA AUC6-12 hour/AUC0-12 hour×100), range [1]: 41-60%; mean MPA trough ([1]; SD ±1.66): 3.5 mg/L; mean dose normalized MPA AUC0-12 ([1]; ±0.02): 0.07 mg·h/L; MPA concentration after incubation with stool bacteria compared to control samples (stool microbiota [2]; MPA arm, one kidney transplant patient stool, YCFA, 37° C., anaerobic, six, 24 and 48 hours, controls without stool): did not change; also recorded: no difference was detected; MPA concentration relative to amount expected from full MPAG conversion (stool microbiota [2]; MPAG arm, one patient stool, 24 and 48 hours): higher than the amount expected if all MPAG is converted to MPA; MPA concentration in MPAG tubes incubated with stool microbiome samples (stool microbiota [2]; MPAG arm, starting at six hours, upward trend at 24 and 48 hours): increase; Release of MPA bioaccumulated in microbiome cells on addition of MPAG (stool microbiota [2]; in vitro assay, MPAG substrate added): led to the release of MPA that had accumulated inside the cells; also recorded: promotes the release of bioaccumulated MPA"
"COc1c(C)c2c(c(O[C@@H]3O[C@H](C(=O)O)[C@@H](O)[C@H](O)[C@H]3O)c1C/C=C(\C)CCC(=O)O)C(=O)OC2 [MPAG, mycophenolic acid glucuronide]",–,–,"MPAG to MPA conversion in repeat assay (stool microbiota [3]): showed ability of the stool microbiome sample to metabolism MPAG to MPA as before; MPAG concentration in the MPA tubes incubated with stool microbiome samples (stool microbiota [2]; MPA arm, MPA to MPAG conversion, six, 24, 48 hours): no detectable concentrations; MPAG concentration in MPAG tubes incubated with stool microbiome samples (stool microbiota [2]; MPAG arm, one patient stool, anaerobic, six hours post incubation): rapid metabolism; also recorded: rapid decrease; MPAG concentration in control aliquots (stool microbiota [2]; MPAG in YCFA without stool, zero, six, 24, 48 hours): remained stable; MPAG to MPA conversion by gut microbiota (stool microbiota [2]; stool of five kidney transplant patients, YCFA, anaerobic, first six hours): Rapid metabolism; also recorded: high MPAG to MPA conversion"
CN(C)C(=N)N=C(N)N [Metformin],–,"Activation [2, 11]",–
"COc1c(C)c2c(c(O)c1C/C=C(\C)CCC(=O)OCCN1CCOCC1)C(=O)OC2 [Mycophenolate Mofetil (MMF), mycophenolate mofetil]",–,Toxicity [4-6],–
CC1=C(CC(=O)O)c2cc(F)ccc2/C1=C\c1ccc([S+](C)[O-])cc1 (stereo not shown) [Sulindac],–,"Toxicity [2, 4-6]",–
C=CC[C@@H]1/C=C(\C)C[C@H](C)C[C@H](OC)[C@H]2O[C@@](O)(C(=O)C(=O)N3CCCC[C@H]3C(=O)O[C@H](/C(C)=C/[C@@H]3CC[C@@H](O)[C@H](OC)C3)[C@H](C)[C@@H](O)CC1=O)[C@H](C)C[C@@H]2OC [Tacrolimus],–,Inactivation [8],–
Ipilimumab: Antil CTLA-4 human monoclonal antibody (Ab) therapeutic drug,–,–,"Effect of microbial modification (Gut Microbiota): Activation [2, 10]"

# Source: US20240344103A1, “IN VITRO MODELS FOR ESTIMATING DRUG DOSAGE” (Hennepin Healthcare Research Institute, priority 2021, published 2024)
